# According to patent US12613234B2, “Structural-profiling of analytes by nanopore trapping” (NANJING UNIVERSITY, priority 2021, dated 2026):
# Several values for one entry are separate records, joined by “and”; a condition that tells them apart may be missing. Equal values may be shown once. Read-outs that look alike come from different tables or passages of the source.
# B1: apo-myoglobin: heme-free myoglobin from equine skeletal muscle (protein, UniProt P68082 2-154, looked up)
# Myoglobin: GLSDGEWQQVLNVWGKVEADIAGHGQEVLIRLFTGHPETLEKFDKFKHLKTEAEMKASEDLKKHGTVVLTALGGILKKKGHHEAELKPLAQSHATKHKIPIKYLEFISDAIIHVLHSKHPGDFGADAQGAMTKALELFRNDIAAKYKELGFQG
# modifications: heme-free apo form
# notes: heme-free myoglobin from equine skeletal muscle
# How the values were obtained:
# wtCaM = wtCaM (Homo sapiens, UniProt P0DP23); experiment: Binding capacity of metal ions to wtCaM monitored by MspA nanopore trapping
# M2 MspA = tested on: M2 MspA; design: species or system Mycobacterium smegmatis; conditions: for mean dwell time (τoff), mean ± std / mean interevent duration time (τon), mean ± std: N=3
# [1] = […] KCl/1.0M CaCl2, +100 mV, listed as LYSOZYME
# [2] = […] KCl/[…] KCl, +100 mV, listed as LYSOZYME
# [3] = […] KCl/[…] KCl, +100 mV, listed as APO-MYOGLOBIN
molecule,measurement,setting,value
[Ba+2] [Ba^2+],Proportion of Apo-wtCaM events,wtCaM,95.6 ± 2.9%
same,Proportion of Holo-wtCaM events (binding capacity),wtCaM,4.4% and 4.4 ± 2.9%
same,"binding capacity to wtCaM, in words",wtCaM,poor binding capacity
same,ΔI/I0 of Apo-wtCaM events,wtCaM,51.6 ± 0.6%
same,ΔI/I0 of Holo-wtCaM events,wtCaM,86.9 ± 1.0%
[Ca+2] [Ca^2+],ion concentration that fully activates wtCaM,wtCaM; 0.3 μM wtCaM,0.6 mM
same,Proportion of Apo-wtCaM events,"wtCaM; 2 mM ion, 0.6 μM wtCaM",21.2 ± 3.1%
same,Proportion of Holo-wtCaM events (binding capacity),"wtCaM; 2 mM ion, 0.6 μM wtCaM",54% and 54.1 ± 4.8%
same,Proportion of Transient States events,"wtCaM; 2 mM ion, 0.6 μM wtCaM",24.8 ± 2.7%
same,ΔI/I0 of Apo-wtCaM events,"wtCaM; 2 mM ion, 0.6 μM wtCaM",56.8±1.1%
same,ΔI/I0 of Holo-wtCaM events,"wtCaM; 2 mM ion, 0.6 μM wtCaM",90.4±0.2%
same,ΔI/I0 of Transient States events,"wtCaM; 2 mM ion, 0.6 μM wtCaM",75.0±2.1%
same,"binding capacity to wtCaM, in words",wtCaM; nanopore trapping,strong binding affinity
[Mg+2] [Mg^2+],Proportion of Apo-wtCaM events,"wtCaM; 2 mM ion, 0.6 μM wtCaM",96.0 ± 1.7%
same,Proportion of Holo-wtCaM events (binding capacity),"wtCaM; 2 mM ion, 0.6 μM wtCaM",4.0% and 4.0 ± 1.7%
same,ΔI/I0 of Apo-wtCaM events,"wtCaM; 2 mM ion, 0.6 μM wtCaM",52.6 ± 0.4%
same,ΔI/I0 of Holo-wtCaM events,"wtCaM; 2 mM ion, 0.6 μM wtCaM",88.8 ± 1.1%
same,"binding capacity to wtCaM, in words",wtCaM; nanopore trapping,poor binding capacity
[Pb+2] [Pb^2+],Proportion of Holo-wtCaM events (binding capacity),wtCaM,62.0±3.1%
same,Proportion of Transient States events,wtCaM,38.0 ± 3.1%
same,"binding capacity to wtCaM, in words",wtCaM,even stronger than that of Ca^2+
same,ΔI/I0 of Holo-wtCaM events,wtCaM,90.6 ± 0.7%
same,ΔI/I0 of Transient States events,wtCaM,77.91 ± 0.13%
[Sr+2] [Sr^2+],Proportion of Apo-wtCaM events,"wtCaM; 2 mM ion, 0.6 μM wtCaM",73.1 ± 1.4%
same,Proportion of Holo-wtCaM events (binding capacity),"wtCaM; 2 mM ion, 0.6 μM wtCaM",14.0±2.4%
same,Proportion of Transient States events,"wtCaM; 2 mM ion, 0.6 μM wtCaM",12.6 ± 0.4%
same,ΔI/I0 of Apo-wtCaM events,"wtCaM; 2 mM ion, 0.6 μM wtCaM",54.0 ± 0.5%
same,ΔI/I0 of Holo-wtCaM events,"wtCaM; 2 mM ion, 0.6 μM wtCaM",90.22 ± 0.16%
same,ΔI/I0 of Transient States events,"wtCaM; 2 mM ion, 0.6 μM wtCaM",75.7 ± 1.5%
same,"binding capacity to wtCaM, in words",wtCaM; nanopore trapping,slightly better binding capacity to wtCaM than that of Mg^2+ or Ba^2+
[Tb+3] [Tb^3+],ion concentration that fully activates apo-wtCaM,wtCaM; 0.3 μM apo-wtCaM,5 µM
same,concentration regime in which Tb-wtCaM events were observed,wtCaM; 0.3 μM wtCaM,0.05 to 120 µM
same,concentration regime in which the pre-aggregated state was observed,wtCaM; 0.3 μM wtCaM,15 to 200 µM
same,ion concentration with complete disappearance of events (aggregation of wtCaM),wtCaM; 0.3 μM wtCaM,500 µM
same,"binding capacity to wtCaM, in words",wtCaM; nanopore trapping,stronger than that of Ca^2+
"lysozyme: lysozyme from chicken egg white, representative basic protein",1/τon,"M2 MspA; +60 mV, […] KCl/1.0M CaCl2",(1.0 ± 0.2) × 10^−2 MS^−1
same,τoff,"M2 MspA; +60 mV, […] KCl/1.0M CaCl2",35.5 ± 0.9 MS
same,1/τon,"M2 MspA; +80 mV, […] KCl/1.0M CaCl2",(1.4 ± 0.4) × 10^−2 MS^−1
same,τoff,"M2 MspA; +80 mV, […] KCl/1.0M CaCl2",47.8 ± 6.7 MS
same,1/τon,"M2 MspA; +100 mV, […] KCl/1.0M CaCl2",(1.8 ± 0.2) × 10^−2 MS^−1
same,τoff,"M2 MspA; +100 mV, […] KCl/1.0M CaCl2",47.3 ± 3.5 MS
same,1/τon,"M2 MspA; +120 mV, […] KCl/1.0M CaCl2",(1.8 ± 0.3) × 10^−2 MS^−1
same,τoff,"M2 MspA; +120 mV, […] KCl/1.0M CaCl2",38.8 ± 8.9 MS
same,"mean dwell time (τoff), mean ± std","M2 MspA; […] KCl/1.0M CaCl2, +100 mV",47.3±3.5 MS
same,"mean interevent duration time (τon), mean ± std","M2 MspA; […] KCl/1.0M CaCl2, +100 mV",38.0±11.0 MS
same,"mean dwell time (τoff), mean ± std",M2 MspA; [1],47.3 ± 3.5 MS
same,"mean interevent duration time (τon), mean ± std",M2 MspA; [1],38.0 ± 11.0 MS
same,"mean dwell time (τoff), mean ± std","M2 MspA; […] KCl/[…] KCl, +100 mV",5.4±0.2 MS
same,"mean interevent duration time (τon), mean ± std","M2 MspA; […] KCl/[…] KCl, +100 mV",460.7±51.2 MS
same,"mean dwell time (τoff), mean ± std",M2 MspA; [2],5.4 ± 0.2 MS
same,"mean interevent duration time (τon), mean ± std",M2 MspA; [2],460.7 ± 51.2 MS
same,1/τon,"M2 MspA; concentration 0.21 (MM), +100 mV",(6.4 ± 2.6) × 10^−3 MS^−1
same,1/τon,"M2 MspA; concentration 0.42 (MM), +100 mV",(2.8 ± 0.8) × 10^−2 MS^−1
same,1/τon,"M2 MspA; concentration 0.63 (MM), +100 mV",(4.2 ± 1.2) × 10^−2 MS^−1
same,1/τon,"M2 MspA; concentration 0.83 (MM), +100 mV",(5.5 ± 0.7) × 10^−2 MS^−1
B1,1/τon,"M2 MspA; +60 mV, […] KCl/1.0M CaCl2",(1.0 ± 0.3) × 10^−3 MS^−1
same,τoff,"M2 MspA; +60 mV, […] KCl/1.0M CaCl2",99.3 ± 20.2 MS
same,1/τon,"M2 MspA; +80 mV, […] KCl/1.0M CaCl2",(2.0 ± 0.5) × 10^−3 MS^−1
same,τoff,"M2 MspA; +80 mV, […] KCl/1.0M CaCl2",317.5 ± 18.3 MS
same,1/τon,"M2 MspA; +100 mV, […] KCl/1.0M CaCl2",(2.8 ± 0.3) × 10^−3 MS^−1
same,τoff,"M2 MspA; +100 mV, […] KCl/1.0M CaCl2",531.0 ± 27.5 MS
same,1/τon,"M2 MspA; +120 mV, […] KCl/1.0M CaCl2",(4.5 ± 0.6) × 10^−3 MS^−1
same,τoff,"M2 MspA; +120 mV, […] KCl/1.0M CaCl2",522.0 ± 15.0 MS
same,"mean dwell time (τoff), mean ± std","M2 MspA; […] KCl/1.0M CaCl2, +100 mV",531.0±27.5 MS
same,"mean interevent duration time (τon), mean ± std","M2 MspA; […] KCl/1.0M CaCl2, +100 mV",365.1 ± 27.9 MS
same,"mean dwell time (τoff), mean ± std","M2 MspA; […] KCl/1.0M CaCl2, +100 mV, listed as APO-MYOGLOBIN",531.0 ± 27.5 MS
same,"mean dwell time (τoff), mean ± std","M2 MspA; […] KCl/[…] KCl, +100 mV",7.3±1.3 MS
same,"mean dwell time (τoff), mean ± std",M2 MspA; [3],7.3 ± 1.3 MS
same,"mean interevent duration time (τon), mean ± std",M2 MspA; [3],3640.4 ± 633.6 MS
same,1/τon,"M2 MspA; concentration 0.04 (MM), +100 mV",(4.4 ± 0.5) × 10^−4 MS^−1
same,1/τon,"M2 MspA; concentration 0.07 (MM), +100 mV",(9.9 ± 0.9) × 10^−3 MS^−1
same,1/τon,"M2 MspA; concentration 0.11 (MM), +100 mV",(2.1 ± 0.2) × 10^−3 MS^−1
same,1/τon,"M2 MspA; concentration 0.14 (MM), +100 mV",(2.8 ± 0.2) × 10^−3 MS^−1
